Results from patent publication US11034725B2, “Compositions and methods for treating cardiovascular disease” (Genentech, Inc., priority 2016, dated 2021).
Numbered stars: 1 amine (or outer) side, 2 acyl side, 3 side chain; on linkers, the order of the positions; unused ones are H or OH. Bridge positions count the residues as written; N and C are the ends. Square brackets hold non-standard residues; d marks the D form. Peptide text beside a SMILES is read from it. * marks the point of attachment. Propanoyl(3-indol-3-yl) = O=C(CCc1c[nH]c2ccccc12)*; Propanoyl(3-(4-F-phenyl)) = O=C(CCc1ccc(F)cc1)*; Propanoyl(3-(4-MeO-Ph)) = COc1ccc(CCC(=O)*)cc1; Desaminotyrosyl = O=C(CCc1ccc(O)cc1)*; X9 = O=C([C@@H]1C(O)CCN1[*:1])[*:2]; hArg = N=C(N)NCCCC[C@H](N)C(=O)O; X39 = O=C(C1CCC(c2ccccc2)CC1)*; X8 = O=C(c1ccc(N2CCOCC2)nc1)*; X11 = O=C(CCCOc1ccc(Br)cc1)*; X38 = O=C(CC1CCS(=O)(=O)C1)*; X42 = O=C(c1ccc2cc[nH]c2c1)*; X19 = Cc1cc(C)n(CCC(=O)*)n1; X25 = COc1cc(CCC(=O)*)ccc1O; X15 = COc1cccc(CCC(=O)*)c1; X29 = Nc1ccc(CCC(=O)*)cc1; X30 = O=C(CCc1cccc(O)c1)*; X35 = Nc1ccc(CCC(=O)*)cn1; X26 = O=C1CCCN1CCC(=O)*; Cbz = O=C(OCc1ccccc1)*; GABA = NCCCC(=O)O

Assays:
His-EGF(A)-Fc = His-EGF(A)-Fc TR-FRET counterscreen; settings: TR-FRET counterscreen; Table 8E, additional compounds
Procedure: The former was based on a TF-FRET assay to measure the association of the EGF(A) domain of the LDLR to PCSK9 (“PCSK9/EGF(A) binding assay”) whilst the latter was based on a TR-FRET assay to measure binding of Ab20 to PCSK9Δhelix (“PCSK9Δhelix/Ab20 binding assay”).
The ability of compounds to inhibit binding to PCSK9 was evaluated with a panel of time-resolved fluorescence resonance energy transfer (TR-FRET) binding assays. […] The PCSK9Δhelix/Ab20 binding assay evaluated the ability of compounds to compete with Ab20 for binding to the N-terminal groove region in a His-tagged, PCSK9Δhelix construct. […] Signal generation in the PCSK9 binding assays was dependent upon the binding interaction to bring into close proximity the His-tag on the PCSK9 and the Fc-tag on the ligand. Anti-His-APC was bound to the His-tag, and anti-Fc-europium was bound to the Fc-tag. When these two antibodies were in close proximity and were irradiated with light at 340 nm, the europium was excited and emitted energy at 615 nm. This energy was taken up by the APC and was emitted as light at 665 nm. Compounds that competed with the ligand reduced the energy transfer and thus the emission at 665 nm. In the His-EGFA-Fc molecule in the counterscreen, the two tags were always in close proximity, thus any reduction in emission at 665 nm was due to interference with the detection system.
Compounds were solubilized and dilutions were prepared in DMSO. […] The plate was centrifuged to mix the well contents and allowed to incubate for 30 min. […] The TR-FRET signal was read on a ViewLux reader (PerkinElmer) with excitation at 340 nm and emission at 615 and 665 nm with a 50-μs time delay between excitation and measurement of emission. The TR-FRET ratio was calculated as the fluorescence emission at 665 nm divided by the fluorescence emission at 615 nm. The normalized TR-FRET ratios were plotted as a function of the compound concentrations, and the IC50 values were determined using a 4-parameter logistic regression.
In black 1536-well assay plates (MaKO, Aurora® Microplates, Whitefish, Mont.), 40 nL of peptide in DMSO were preincubated with 2 μL His-tagged PCSK9 plus anti-His-allophycocyanin in assay buffer (50 mM Tris-HCl, pH 7.5, 150 mM NaCl, 2 mM CaCl2, 0.01% Tween®-20, 0.1% bovine gamma globulins, and protease inhibitor cocktail) for 30 min. Then 2 μL of Fc-tagged ligand and anti-Fc-europium in assay buffer were added and allowed to incubate for 2 h.

PCSK9Δhelix = target: T1, PCSK9Δhelix (Homo sapiens, UniProt Q8NBP7); test: PCSK9Δhelix/Ab20 TR-FRET binding assay; settings: TR-FRET; Table 8E, additional compounds; read-out: PCSK9Δhelix/Ab20 IC50
T1 construct: Human PCSK9 construct M1-Q692 with an engineered TEV site (residue deletion Y166, R167); made in house; host or cells: CHO

PCSK9 = PCSK9 (Homo sapiens, UniProt Q8NBP7); test: PCSK9/EGF(A) TR-FRET binding assay; settings: TR-FRET; Table 8E, additional compounds; read-out: PCSK9/EGF(A) IC50
Sequence of PCSK9 (Q8NBP7 153-692): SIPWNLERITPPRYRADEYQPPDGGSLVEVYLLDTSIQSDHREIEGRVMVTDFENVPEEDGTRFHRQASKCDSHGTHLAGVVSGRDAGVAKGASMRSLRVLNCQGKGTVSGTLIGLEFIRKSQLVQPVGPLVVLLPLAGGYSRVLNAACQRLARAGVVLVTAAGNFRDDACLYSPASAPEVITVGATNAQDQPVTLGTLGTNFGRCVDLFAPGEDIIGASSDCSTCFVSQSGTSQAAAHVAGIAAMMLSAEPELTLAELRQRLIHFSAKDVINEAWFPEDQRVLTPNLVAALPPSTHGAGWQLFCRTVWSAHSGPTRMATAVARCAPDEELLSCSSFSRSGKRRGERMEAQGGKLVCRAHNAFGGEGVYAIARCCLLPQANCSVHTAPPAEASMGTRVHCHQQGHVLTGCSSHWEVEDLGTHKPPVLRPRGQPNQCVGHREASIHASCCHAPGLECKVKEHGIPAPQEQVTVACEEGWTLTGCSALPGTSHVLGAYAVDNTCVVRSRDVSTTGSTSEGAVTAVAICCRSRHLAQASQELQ
Sequence of PCSK9 (Q8NBP7 31-152 partner limits assumed): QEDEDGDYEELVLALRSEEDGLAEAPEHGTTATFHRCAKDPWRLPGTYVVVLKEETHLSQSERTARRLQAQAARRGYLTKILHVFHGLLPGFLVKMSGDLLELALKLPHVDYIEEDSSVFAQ

T1 sequence (Q8NBP7 with tags, fused parts or gaps limits assumed): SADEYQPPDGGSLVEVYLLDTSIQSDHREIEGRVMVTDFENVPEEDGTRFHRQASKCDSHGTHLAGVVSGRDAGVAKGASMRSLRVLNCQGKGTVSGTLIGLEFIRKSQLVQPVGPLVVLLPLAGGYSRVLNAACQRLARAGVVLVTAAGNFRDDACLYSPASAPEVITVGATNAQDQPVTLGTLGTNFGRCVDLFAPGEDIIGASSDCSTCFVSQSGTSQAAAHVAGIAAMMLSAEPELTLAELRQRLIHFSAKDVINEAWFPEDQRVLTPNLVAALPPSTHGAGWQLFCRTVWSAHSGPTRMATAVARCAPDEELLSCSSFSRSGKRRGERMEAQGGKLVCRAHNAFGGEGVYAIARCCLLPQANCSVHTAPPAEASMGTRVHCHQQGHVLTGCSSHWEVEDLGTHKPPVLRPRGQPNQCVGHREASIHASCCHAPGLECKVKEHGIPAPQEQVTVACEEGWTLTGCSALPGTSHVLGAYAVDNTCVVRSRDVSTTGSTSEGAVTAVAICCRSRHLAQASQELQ
T1 sequence (Q8NBP7 31-152 partner limits assumed): as the sequence (Q8NBP7 31-152 partner limits assumed) above

SMILES | IC50 (His-EGF(A)-Fc) | IC50 (PCSK9Δhelix) | IC50 (PCSK9)
CC[C@H](C)[C@@H]1NC(=O)[C@H](CCCNC(=N)N)NC(=O)[C@H](CCC(N)=O)NC(=O)[C@H](CC(C)C)NC(=O)[C@H](CC(N)=O)NC(=O)[C@H](Cc2c[nH]c3ccccc23)NC(=O)[C@@H]2C(O)CCN2C(=O)[C@H]([C@@H](C)CC)NC(=O)[C@H](Cc2ccccc2)NC(=O)[C@@H](NC(=O)CNC(=O)[C@H](CO)NC(C)=O)CSSC[C@@H](C(N)=O)NC(=O)[C@H](CC(C)C)NC(=O)[C@H](CC(C)C)NC(=O)CNC1=O (stereo partly drawn) [Compound 242] (Ac-SGCFI[X9]WNLQRIGLLC-NH2; disulfide 3-16) | ≥ 50000 nM |  | 
CC[C@H](C)[C@H](NC(=O)[C@H](CCCCNC(=N)N)NC(=O)[C@@H](NC(=O)[C@H](CC(C)C)NC(=O)[C@H](CC(N)=O)NC(=O)[C@H](Cc1c[nH]c2ccccc12)NC(=O)CCc1ccc(O)c(OC)c1)C(C)C)C(=O)NCC(=O)N[C@@H](CC(C)C)C(=O)N[C@@H](CC(C)C)C(=O)N[C@@H](CCCNC(=N)N)C(N)=O [Compound 213] (X25-WNLV[hArg]IGLLR-NH2) |  | 200 nM | 3800 nM
CC[C@H](C)[C@H](NC(=O)[C@H](CCCCNC(=N)N)NC(=O)[C@@H](NC(=O)[C@H](CC(C)C)NC(=O)[C@H](CC(N)=O)NC(=O)[C@H](Cc1c[nH]c2ccccc12)NC(=O)CCc1cccc(O)c1)C(C)C)C(=O)NCC(=O)N[C@@H](CC(C)C)C(=O)N[C@@H](CC(C)C)C(=O)N[C@@H](CCCNC(=N)N)C(N)=O [Compound 217] (X30-WNLV[hArg]IGLLR-NH2) |  | 390 nM | 4100 nM
CC[C@H](C)[C@H](NC(=O)[C@H](CCCCNC(=N)N)NC(=O)[C@@H](NC(=O)[C@H](CC(C)C)NC(=O)[C@H](CC(N)=O)NC(=O)[C@H](Cc1c[nH]c2ccccc12)NC(=O)CCc1cccc(OC)c1)C(C)C)C(=O)NCC(=O)N[C@@H](CC(C)C)C(=O)N[C@@H](CC(C)C)C(=O)N[C@@H](CCCNC(=N)N)C(N)=O [Compound 202] (X15-WNLV[hArg]IGLLR-NH2) |  | 340 nM | 2600 nM
CC[C@H](C)[C@H](NC(=O)[C@H](CCCNC(=N)N)NC(=O)[C@@H](NC(=O)[C@H](CC(C)C)NC(=O)[C@H](CC(N)=O)NC(=O)[C@H](Cc1c[nH]c2ccccc12)NC(=O)CCn1nc(C)cc1C)C(C)C)C(=O)NCC(=O)N[C@@H](CC(C)C)C(=O)N[C@@H](CC(C)C)C(=O)N[C@@H](CCCNC(=N)N)C(N)=O [Compound 136] (X19-WNLVRIGLLR-NH2) |  | 9000 nM | ≥ 50000 nM
CC[C@H](C)[C@H](NC(=O)[C@H](CCCNC(=N)N)NC(=O)[C@@H](NC(=O)[C@H](CC(C)C)NC(=O)[C@H](CC(N)=O)NC(=O)[C@H](Cc1c[nH]c2ccccc12)NC(=O)CCCNC(=O)OCc1ccccc1)C(C)C)C(=O)NCC(=O)N[C@@H](CC(C)C)C(=O)N[C@H](C(=O)N[C@@H](CCCNC(=N)N)C(N)=O)[C@@H](C)O [Compound 169] ({Cbz-GABA}-WNLVRIGLTR-NH2) |  | 6800 nM | ≥ 50000 nM
CC[C@H](C)[C@H](NC(=O)[C@H](CCCCNC(=N)N)NC(=O)[C@@H](NC(=O)[C@H](CC(C)C)NC(=O)[C@H](CC(N)=O)NC(=O)[C@H](Cc1c[nH]c2ccccc12)NC(=O)CCCOc1ccc(Br)cc1)C(C)C)C(=O)NCC(=O)N[C@@H](CC(C)C)C(=O)N[C@@H](CC(C)C)C(=O)N[C@@H](CCCNC(=N)N)C(N)=O [Compound 206] (X11-WNLV[hArg]IGLLR-NH2) |  | 870 nM | 1800 nM
CC[C@H](C)[C@H](NC(=O)[C@H](CCCCNC(=N)N)NC(=O)[C@@H](NC(=O)[C@H](CC(C)C)NC(=O)[C@H](CC(N)=O)NC(=O)[C@H](Cc1c[nH]c2ccccc12)NC(=O)CCc1ccc(F)cc1)C(C)C)C(=O)NCC(=O)N[C@@H](CC(C)C)C(=O)N[C@@H](CC(C)C)C(=O)N[C@@H](CCCNC(=N)N)C(N)=O [Compound 198] ({Propanoyl(3-(4-F-phenyl))}-WNLV[hArg]IGLLR-NH2) |  | 250 nM | 1700 nM
CC[C@H](C)[C@H](NC(=O)[C@H](CCCCNC(=N)N)NC(=O)[C@@H](NC(=O)[C@H](CC(C)C)NC(=O)[C@H](CC(N)=O)NC(=O)[C@H](Cc1c[nH]c2ccccc12)NC(=O)CCc1ccc(O)c(OC)c1)C(C)C)C(=O)NCC(=O)N[C@@H](CC(C)C)C(=O)N[C@@H](CC(C)C)C(=O)N[C@@H](CC(N)=O)C(N)=O [Compound 238] (X25-WNLV[hArg]IGLLN-NH2) |  | 330 nM | 7700 nM
CC[C@H](C)[C@H](NC(=O)[C@H](CCCNC(=N)N)NC(=O)[C@@H](NC(=O)[C@H](CC(C)C)NC(=O)[C@H](CC(N)=O)NC(=O)[C@H](Cc1c[nH]c2ccccc12)NC(=O)CC1CCS(=O)(=O)C1)C(C)C)C(=O)NCC(=O)N[C@@H](CC(C)C)C(=O)N[C@@H](CC(C)C)C(=O)N[C@@H](CCCNC(=N)N)C(N)=O (stereo partly drawn) [Compound 139] (X38-WNLVRIGLLR-NH2) |  | 19000 nM | ≥ 50000 nM
CC[C@H](C)[C@H](NC(=O)[C@H](CCCCNC(=N)N)NC(=O)[C@@H](NC(=O)[C@H](CC(C)C)NC(=O)[C@H](CC(N)=O)NC(=O)[C@H](Cc1c[nH]c2ccccc12)NC(=O)CCc1c[nH]c2ccccc12)C(C)C)C(=O)NCC(=O)N[C@@H](CC(C)C)C(=O)N[C@@H](CC(C)C)C(=O)N[C@@H](CCCNC(=N)N)C(N)=O [Compound 201] ({Propanoyl(3-indol-3-yl)}-WNLV[hArg]IGLLR-NH2) |  | 1000 nM | 3900 nM
CC[C@H](C)[C@H](NC(=O)[C@H](CCCCNC(=N)N)NC(=O)[C@@H](NC(=O)[C@H](CC(C)C)NC(=O)[C@H](CC(N)=O)NC(=O)[C@H](Cc1c[nH]c2ccccc12)NC(=O)[C@@H](N)Cc1ccc(O)cc1)C(C)C)C(=O)NCC(=O)N[C@@H](CC(C)C)C(=O)N[C@@H](CC(C)C)C(=O)N[C@@H](CCCNC(=N)N)C(N)=O [Compound 226] (H-YWNLV[hArg]IGLLR-NH2) |  | 350 nM | 6200 nM
CC[C@H](C)[C@H](NC(=O)[C@H](CCCCNC(=N)N)NC(=O)[C@@H](NC(=O)[C@H](CC(C)C)NC(=O)[C@H](CC(N)=O)NC(=O)[C@H](Cc1c[nH]c2ccccc12)NC(=O)CCc1ccc(OC)cc1)C(C)C)C(=O)NCC(=O)N[C@@H](CC(C)C)C(=O)N[C@@H](CC(C)C)C(=O)N[C@@H](CCCNC(=N)N)C(N)=O [Compound 197] ({Propanoyl(3-(4-MeO-Ph))}-WNLV[hArg]IGLLR-NH2) |  | 90 nM | 970 nM
CC[C@H](C)[C@H](NC(=O)[C@H](CCCCNC(=N)N)NC(=O)[C@@H](NC(=O)[C@H](CC(C)C)NC(=O)[C@H](CC(N)=O)NC(=O)[C@H](Cc1c[nH]c2ccccc12)NC(=O)c1ccc(N2CCOCC2)nc1)C(C)C)C(=O)NCC(=O)N[C@@H](CC(C)C)C(=O)N[C@@H](CC(C)C)C(=O)N[C@@H](CCCNC(=N)N)C(N)=O [Compound 219] (X8-WNLV[hArg]IGLLR-NH2) |  | 680 nM | 9900 nM
CC[C@H](C)[C@H](NC(=O)[C@H](CCCCNC(=N)N)NC(=O)[C@@H](NC(=O)[C@H](CC(C)C)NC(=O)[C@H](CC(N)=O)NC(=O)[C@H](Cc1c[nH]c2ccccc12)NC(=O)CCc1ccc(N)nc1)C(C)C)C(=O)NCC(=O)N[C@@H](CC(C)C)C(=O)N[C@@H](CC(C)C)C(=O)N[C@@H](CCCNC(=N)N)C(N)=O [Compound 216] (X35-WNLV[hArg]IGLLR-NH2) |  | 300 nM | 6000 nM
CC[C@H](C)[C@H](NC(=O)[C@H](CCCNC(=N)N)NC(=O)[C@@H](NC(=O)[C@H](CC(C)C)NC(=O)[C@H](CC(N)=O)NC(=O)[C@H](Cc1c[nH]c2ccccc12)NC(=O)C1CCC(c2ccccc2)CC1)C(C)C)C(=O)NCC(=O)N[C@@H](CC(C)C)C(=O)N[C@@H](CC(C)C)C(=O)N[C@@H](CCCNC(=N)N)C(N)=O (stereo partly drawn) [Compound 147] (X39-WNLVRIGLLR-NH2) |  | 410 nM | 2600 nM
CC[C@H](C)[C@H](NC(=O)[C@H](CCCNC(=N)N)NC(=O)[C@@H](NC(=O)[C@H](CC(C)C)NC(=O)[C@H](CC(N)=O)NC(=O)[C@H](Cc1c[nH]c2ccccc12)NC(=O)CCc1ccc(N)cc1)C(C)C)C(=O)NCC(=O)N[C@@H](CC(C)C)C(=O)N[C@H](C(=O)N[C@@H](CCCNC(=N)N)C(N)=O)[C@@H](C)O [Compound 161] (X29-WNLVRIGLTR-NH2) |  | 5000 nM | ≥ 50000 nM
CC[C@H](C)[C@H](NC(=O)[C@H](CCCNC(=N)N)NC(=O)[C@@H](NC(=O)[C@H](CC(C)C)NC(=O)[C@H](CC(N)=O)NC(=O)[C@H](Cc1c[nH]c2ccccc12)NC(=O)CCc1ccc(O)cc1)C(C)C)C(=O)NCC(=O)N[C@@H](CC(C)C)C(=O)N[C@H](C(=O)N[C@@H](CCCNC(=N)N)C(N)=O)[C@@H](C)O [Compound 170] (Desaminotyrosyl-WNLVRIGLTR-NH2) |  | 3100 nM | ≥ 50000 nM
CC[C@H](C)[C@H](NC(=O)[C@H](CCCCNC(=N)N)NC(=O)[C@@H](NC(=O)[C@H](CC(C)C)NC(=O)[C@H](CC(N)=O)NC(=O)[C@H](Cc1c[nH]c2ccccc12)NC(=O)c1ccc2cc[nH]c2c1)C(C)C)C(=O)NCC(=O)N[C@@H](CC(C)C)C(=O)N[C@@H](CC(C)C)C(=O)N[C@@H](CCCNC(=N)N)C(N)=O [Compound 222] (X42-WNLV[hArg]IGLLR-NH2) |  | 1400 nM | 21000 nM
CC[C@H](C)[C@H](NC(=O)[C@H](CCCNC(=N)N)NC(=O)[C@@H](NC(=O)[C@H](CC(C)C)NC(=O)[C@H](CC(N)=O)NC(=O)[C@H](Cc1c[nH]c2ccccc12)NC(=O)CCN1CCCC1=O)C(C)C)C(=O)NCC(=O)N[C@@H](CC(C)C)C(=O)N[C@@H](CC(C)C)C(=O)N[C@@H](CCCNC(=N)N)C(N)=O [Compound 128] (X26-WNLVRIGLLR-NH2) |  | 7500 nM | ≥ 50000 nM
